Like-named read-outs stand apart in the source and are kept apart here.

The test system of this assay is SJSA-1 cells. The assay is described as follows: Protocol B: SJSA-1 CellTiter-Glo luminescent cell viability assay.
The mark [1] stands for this setting: Homo sapiens, SJSA-1, read-out: SJSA1 IC50 (μM) (Protocol B), SJSA-1, Protocol B.
[2] abbreviates: read-out: SJSA1 IC50 (μM) (Protocol B), SJSA-1, Protocol B.

As for `CN(C)CC(C)(O)c1cc(F)c2c(c1)C(=O)N(Cc1ccc(Cl)cn1)[C@@]2(O[C@H]1CCOC1)c1ccc(Cl)cc1` (single isomer, unassigned) [Example 138], under setting [1], the IC50 was determined as 0.56 µM.

On to `CCOCC(C)(O)c1cc(F)c2c(c1)C(=O)N(Cc1ccc(Cl)cn1)[C@@]2(O[C@H]1CCOC1)c1ccc(Cl)cc1` (single isomer, unassigned) [Example 140], for which the IC50 under setting [2] is 0.23 µM.

`CCOCC(C)(O)c1cc(F)c2c(c1)C(=O)N(Cc1ccc(Cl)cn1)[C@@]2(O[C@H]1CCOC1)c1ccc(Cl)cc1` (single isomer, unassigned) [Example 141]: under setting [2], the IC50 is 1.8 µM.

For `[2H]C([2H])([2H])OCC(C)(O)c1cc(F)c2c(c1)C(=O)N(C([2H])([2H])c1ccc(Cl)cn1)[C@@]2(O[C@H]1CCOC1)c1ccc(Cl)cc1` (single isomer, unassigned) [Example 142], the half-maximal inhibitory concentration (IC50) under setting [2] is 0.23 µM.

Regarding `[2H]C([2H])([2H])OCC(C)(O)c1cc(F)c2c(c1)C(=O)N(C([2H])([2H])c1ccc(Cl)cn1)[C@@]2(O[C@H]1CCOC1)c1ccc(Cl)cc1` (single isomer, unassigned) [Example 143], the IC50 under setting [2] turned out to be 0.86 µM.

Regarding `CO[C@]1(c2ccc(Cl)cc2)c2c(F)cc(C(C)(O)c3ncc[nH]3)cc2C(=O)N1Cc1ccc(Cl)cn1` (single isomer, unassigned) [Example 164], the IC50 under setting [2] was 2.2 µM.

`CO[C@]1(c2ccc(Cl)cc2)c2c(F)cc(C(C)(O)c3nccs3)cc2C(=O)N1Cc1ccc(Cl)cn1` (single isomer, unassigned) [Example 166]: the IC50 under setting [2] is 3.8 µM.

As to `Cn1cc(C(C)(O)c2cc(F)c3c(c2)C(=O)N(Cc2ccc(Cl)cn2)[C@@]3(OCC2(C(N)=O)CC2)c2ccc(Cl)cc2)cn1` (single isomer, unassigned) [Example 178], the half-maximal inhibitory concentration (IC50) under setting [1] came to 0.1 µM.

For the compound `CCn1cc(C(C)(O)c2cc(F)c3c(c2)C(=O)N(Cc2ccc(Cl)cn2)[C@@]3(OCC2(C(N)=O)CC2)c2ccc(Cl)cc2)cn1` (single isomer, unassigned) [Example 180], the IC50 under setting [1] stood at 0.16 µM.

As for `CCn1cc(C(C)(O)c2cc(F)c3c(c2)C(=O)N(Cc2ccc(Cl)cn2)[C@@]3(OCC2(O)CC2)c2ccc(Cl)cc2)cn1` (single isomer, unassigned) [Example 183], the IC50 under setting [2] was 0.43 µM.

With `CCn1cc(C(C)(O)c2cc(F)c3c(c2)C(=O)N(Cc2ccc(Cl)cn2)[C@@]3(OCC2(O)CC2)c2ccc(Cl)cc2)cn1` (single isomer, unassigned) [Example 184], the IC50 under setting [2] was 0.14 µM.

`Cc1nnc(C(C)(O)c2cc(F)c3c(c2)C(=O)N(Cc2ccc(Cl)cn2)[C@@]3(OCC2(O)CC2)c2ccc(Cl)cc2)o1` (single isomer, unassigned) [Example 185]: under setting [2], the IC50 is 2.2 µM.

Turning to `Cc1nnc(C(C)(O)c2cc(F)c3c(c2)C(=O)N(Cc2ccc(Cl)cn2)[C@@]3(OCC2(O)CC2)c2ccc(Cl)cc2)o1` (single isomer, unassigned) [Example 186], under setting [2], the IC50 was 0.42 µM.

In the case of `CO[C@]1(c2ccc(Cl)cc2)c2c(F)cc(C(C)(O)c3cn(C)nn3)cc2C(=O)N1Cc1ccc(Cl)cn1` (single isomer, unassigned) [Example 187], under setting [1], the IC50 came out at 0.89 µM.

For the compound `CO[C@]1(c2ccc(Cl)cc2)c2c(F)cc(C(C)(O)c3ccn(C)n3)cc2C(=O)N1Cc1ccc(Cl)cn1` (single isomer, unassigned) [Example 189], the IC50 under setting [2] amounted to 1 µM.

Regarding `CO[C@]1(c2ccc(Cl)cc2)c2c(F)cc(C(C)(O)c3ccn(C)n3)cc2C(=O)N1Cc1ccc(Cl)cn1` (single isomer, unassigned) [Example 190], the IC50 under setting [2] stood at 5 µM.

Consider `CC(O)(c1cc(F)c2c(c1)C(=O)N(Cc1ccc(Cl)cn1)[C@@]2(OCC1(C(N)=O)CC1)c1ccc(Cl)cc1)c1cscn1` (single isomer, unassigned) [Example 193], for which the IC50 under setting [1] was 0.14 µM.

Regarding `Cn1cnc(C(C)(O)c2cc(F)c3c(c2)C(=O)N(Cc2ccc(Cl)cn2)[C@@]3(OCC2(O)CC2)c2ccc(Cl)cc2)c1` (single isomer, unassigned) [Example 195], the IC50 under setting [2] was found to be 0.61 µM.

As to `Cn1cnc(C(C)(O)c2cc(F)c3c(c2)C(=O)N(Cc2ccc(Cl)cn2)[C@@]3(OCC2(O)CC2)c2ccc(Cl)cc2)c1` (single isomer, unassigned) [Example 196], the IC50 under setting [2] worked out at 0.15 µM.

With `Cc1nc(C(C)(O)c2cc(F)c3c(c2)C(=O)N(Cc2ccc(Cl)cn2)[C@@]3(OCC2(C(N)=O)CC2)c2ccc(Cl)cc2)cn1C` (single isomer, unassigned) [Example 197], the IC50 under setting [1] was determined as 0.21 µM.

Turning to `Cn1cc(C(C)(O)c2cc(F)c3c(c2)C(=O)N(Cc2ccc(Cl)cn2)[C@@]3(OCC2(O)CC2)c2ccc(Cl)cc2)cn1` (single isomer, unassigned) [Example 199], the IC50 under setting [2] came out at 0.83 µM.

On to `Cn1cc(C(C)(O)c2cc(F)c3c(c2)C(=O)N(Cc2ccc(Cl)cn2)[C@@]3(OCC2(O)CC2)c2ccc(Cl)cc2)cn1` (single isomer, unassigned) [Example 200], for which the IC50 under setting [2] stood at 0.099 µM.

For the compound `Cn1cc(C(C)(O)c2cc(F)c3c(c2)C(=O)N(Cc2ccc(Cl)cn2)[C@@]3(OCC2(C#N)CC2)c2ccc(Cl)cc2)cn1` (single isomer, unassigned) [Example 201], the IC50 under setting [2] was found to be 0.76 µM.

For the compound `Cn1cc(C(C)(O)c2cc(F)c3c(c2)C(=O)N(Cc2ccc(Cl)cn2)[C@@]3(OCC2(C#N)CC2)c2ccc(Cl)cc2)cn1` (single isomer, unassigned) [Example 202], the IC50 under setting [2] amounted to 0.11 µM.

On to `Cn1cc(C(C)(O)c2cc(F)c3c(c2)C(=O)N(Cc2ncc(Cl)cn2)[C@@]3(OCC2(O)CC2)c2ccc(Cl)cc2)cn1` (single isomer, unassigned) [Example 203], for which the IC50 under setting [2] was 0.08 µM.

Consider `Cn1cc(C(C)(O)c2cc(F)c3c(c2)C(=O)N(Cc2ncc(Cl)cn2)[C@@]3(OCC2(O)CC2)c2ccc(Cl)cc2)cn1` (single isomer, unassigned) [Example 204], for which, under setting [2], the IC50 was 0.94 µM.

Turning to `CC(O)(CN1CCCC1)c1cc(F)c2c(c1)C(=O)N(Cc1ccc(C#N)cn1)[C@@]2(OCC1(C#N)CC1)c1ccc(Cl)cc1` (single isomer, unassigned) [Example 276], the concentration for half-maximal inhibition (IC50) under setting [2] was 2.5 µM.

For the compound `CC(O)(CN1CCCC1)c1cc(F)c2c(c1)C(=O)N(Cc1ccc(C#N)cn1)[C@@]2(OCC1(C#N)CC1)c1ccc(Cl)cc1` (single isomer, unassigned) [Example 277], under setting [2], the IC50 came out at 1.2 µM.

On to `CN1CCN(CC(C)(O)c2cc(F)c3c(c2)C(=O)N(Cc2ccc(C#N)cn2)[C@@]3(OCC2(C#N)CC2)c2ccc(Cl)cc2)CC1` (single isomer, unassigned) [Example 278], for which the IC50 under setting [2] is 2.6 µM.

In the case of `CN1CCN(CC(C)(O)c2cc(F)c3c(c2)C(=O)N(Cc2ccc(C#N)cn2)[C@@]3(OCC2(C#N)CC2)c2ccc(Cl)cc2)CC1` (single isomer, unassigned) [Example 279], the half-inhibitory concentration (IC50) under setting [2] came to 0.57 µM.

As for `CO[C@]1(c2ccc(Cl)cc2)c2c(F)cc(C(C)(O)C3CCN(C(=O)CN(C)C)CC3)cc2C(=O)N1Cc1ccc(Cl)cn1` (single isomer, unassigned) [Example 298], the IC50 under setting [2] stood at 0.55 µM.

On to `CO[C@]1(c2ccc(Cl)cc2)c2c(F)cc(C(C)(O)C3CCN(C(=O)CN(C)C)CC3)cc2C(=O)N1Cc1ccc(Cl)cn1` (single isomer, unassigned) [Example 299], for which the half-inhibitory concentration (IC50) under setting [2] was 2 µM.

Regarding `CO[C@]1(c2ccc(Cl)cc2)c2c(F)cc(C(C)(O)C3CCS(=O)(=O)CC3)cc2C(=O)N1Cc1ccc(Cl)cn1` (single isomer, unassigned) [Example 311], the IC50 under setting [1] was 0.25 µM.

By IC50 is commonly meant the concentration that gives 50% inhibition.

The record behind these values is patent publication US11236047B2 (ASTEX THERAPEUTICS LIMITED, priority 2017, dated 2022).
